Columns and labels:
[1] = test system: aptamer # 13_82(19-80) (DNA, aptamer) CAGGGCGGTATGAGGCTCGATCAAGGTCGGAGCGAGAATTTTTTCGCGGAGTCGGCTGGATC; experiment: MTP fluorescence release assay; details: 100 mM Na+, 5 mM K+, 2 mM Mg2+, 1 mM Ca2+; 20 mM Tris-HCl pH 7.6, 21 °C; release from capture oligo iODN2Sp; elution not above background
[2] = test system: aptamer # 3_7 (DNA, aptamer) ATACCAGCTTATTCAATTGGTGGTAGGATGGGCTCGATCGAGGTCTTCAGTCGGCTCGGTTTAGTTTATGTTCTCCTGTAGATAGTAAGTGCAATCT; experiment: bead fluorescence release assay; details: 100 mM Na+, 5 mM K+, 2 mM Mg2+, 1 mM Ca2+; 20 mM Tris-HCl pH 7.6, 21 °C; 1 mM compound; release from capture oligo iODN2Sp; single concentration
[3] = test system: aptamer # 13_82 (DNA, aptamer) ATACCAGCTTATTCAATTCAGGGCGGTATGAGGCTCGATCAAGGTCGGAGCGAGAATTTTTTCGCGGAGTCGGCTGGATCAGATAGTAAGTGCAATCT; experiment: bead fluorescence release assay; details: 100 mM Na+, 5 mM K+, 2 mM Mg2+, 1 mM Ca2+; 20 mM Tris-HCl pH 7.6, 21 °C; 1 mM compound; release from capture oligo iODN2Sp; single concentration
[4] = test system: aptamer # 3_19 (DNA, aptamer) ATACCAGCTTATTCAATTAGCCCGGTATTGAGGTCGATCTCTTATCCTATGGCTTGTCCCCCATGGCTCGGTTATATCCAGATAGTAAGTGCAATCT; experiment: bead fluorescence release assay; details: 100 mM Na+, 5 mM K+, 2 mM Mg2+, 1 mM Ca2+, 20 mM Tris-HCl pH 7.6, 21 °C, 1 mM compound, release from capture oligo iODN2Sp; for amount of eluted aptamer DNA: single concentration; for binding: below 1 pmol threshold
[5] = test system: aptamer # 11_76 (DNA, aptamer) ATACCAGCTTATTCAATTATGCGGGGATGAGGCTTGATCTGTGGCTCTGATCCATGATCAGTCGTCTTACGTGCGGTCCAGATAGTAAGTGCAATCT; experiment: bead fluorescence release assay; details: 100 mM Na+, 5 mM K+, 2 mM Mg2+, 1 mM Ca2+; 20 mM Tris-HCl pH 7.6, 21 °C; 1 mM compound; release from capture oligo iODN2Sp; single concentration
[6] = test system: aptamer # 3_7(1-79) (DNA, aptamer) ATACCAGCTTATTCAATTGGTGGTAGGATGGGCTCGATCGAGGTCTTCAGTCGGCTCGGTTTAGTTTATGTTCTCCTGT; experiment: bead fluorescence release assay; details: 100 mM Na+, 5 mM K+, 2 mM Mg2+, 1 mM Ca2+; 20 mM Tris-HCl pH 7.6, 21 °C; 1 mM compound; release from capture oligo iODN2Sp; single concentration
[7] = test system: aptamer # 13_82(19-80) (DNA, aptamer) CAGGGCGGTATGAGGCTCGATCAAGGTCGGAGCGAGAATTTTTTCGCGGAGTCGGCTGGATC; experiment: bead fluorescence release assay; details: 100 mM Na+, 5 mM K+, 2 mM Mg2+, 1 mM Ca2+; 20 mM Tris-HCl pH 7.6, 21 °C; 1 mM compound; release from capture oligo iODN2Sp; single concentration
[8] = test system: aptamer # 3_19 (DNA, aptamer) ATACCAGCTTATTCAATTAGCCCGGTATTGAGGTCGATCTCTTATCCTATGGCTTGTCCCCCATGGCTCGGTTATATCCAGATAGTAAGTGCAATCT; experiment: fluorescence (bead or MTP assay) or SPR, capture-oligo release; details: 100 mM Na+, 5 mM K+, 2 mM Mg2+, 1 mM Ca2+; 20 mM Tris-HCl pH 7.6; release from capture oligo iODN2Sp; micromolar range; apparent
[9] = test system: aptamer # 13_82 (DNA, aptamer) ATACCAGCTTATTCAATTCAGGGCGGTATGAGGCTCGATCAAGGTCGGAGCGAGAATTTTTTCGCGGAGTCGGCTGGATCAGATAGTAAGTGCAATCT; experiment: as above; details: 100 mM Na+, 5 mM K+, 2 mM Mg2+, 1 mM Ca2+; 20 mM Tris-HCl pH 7.6; release from capture oligo iODN2Sp; micromolar range; apparent
[10] = test system: aptamer # 13_82(19-80) (DNA, aptamer) CAGGGCGGTATGAGGCTCGATCAAGGTCGGAGCGAGAATTTTTTCGCGGAGTCGGCTGGATC; experiment: as above; details: 100 mM Na+, 5 mM K+, 2 mM Mg2+, 1 mM Ca2+; 20 mM Tris-HCl pH 7.6; release from capture oligo iODN2Sp; micromolar range; apparent
[11] = test system: aptamer # 11_76 (DNA, aptamer) ATACCAGCTTATTCAATTATGCGGGGATGAGGCTTGATCTGTGGCTCTGATCCATGATCAGTCGTCTTACGTGCGGTCCAGATAGTAAGTGCAATCT; experiment: as above; details: 100 mM Na+, 5 mM K+, 2 mM Mg2+, 1 mM Ca2+; 20 mM Tris-HCl pH 7.6; release from capture oligo iODN2Sp; micromolar range; apparent
[12] = test system: # 3_19(1-79) (DNA, aptamer) ATACCAGCTTATTCAATTAGCCCGGTATTGAGGTCGATCTCTTATCCTATGGCTTGTCCCCCATGGCTCGGTTATATCC; experiment: MTP fluorescence release assay; details: 100 mM Na+, 5 mM K+, 2 mM Mg2+, 1 mM Ca2+; 20 mM Tris-HCl pH 7.6, 21 °C; release from capture oligo iODN2Sp; elution not above background
[13] = test system: aptamer # 3_7(1-79) (DNA, aptamer) ATACCAGCTTATTCAATTGGTGGTAGGATGGGCTCGATCGAGGTCTTCAGTCGGCTCGGTTTAGTTTATGTTCTCCTGT; experiment: fluorescence (bead or MTP assay) or SPR, capture-oligo release; details: 100 mM Na+, 5 mM K+, 2 mM Mg2+, 1 mM Ca2+; 20 mM Tris-HCl pH 7.6; release from capture oligo iODN2Sp; micromolar range; apparent

| Structure (SMILES) | binding [1] | amount of eluted aptamer DNA [2] | amount of eluted aptamer DNA [3] | amount of eluted aptamer DNA [4] | amount of eluted aptamer DNA [5] | amount of eluted aptamer DNA [6] | binding [4] | amount of eluted aptamer DNA [7] | dissociation constant [8] | dissociation constant [9] | dissociation constant [10] | dissociation constant [11] | binding [12] | dissociation constant [13] |
| --- | --- | --- | --- | --- | --- | --- | --- | --- | --- | --- | --- | --- | --- | --- |
| NC[C@@H]1O[C@H](O[C@H]2[C@@H](O)[C@H](O[C@@H]3[C@@H](O)[C@H](N)C[C@H](N)[C@H]3O[C@H]3O[C@H](CO)[C@@H](O)[C@H](O)[C@H]3N)O[C@@H]2CO)[C@H](N)[C@@H](O)[C@@H]1O | no |  |  |  |  |  |  |  |  |  |  |  |  |  |
| CN[C@@H]1[C@@H](O[C@H]2O[C@H](CO)[C@@H](N)[C@H](O)[C@H]2O)O[C@H]2C[C@@H](N)[C@@H](O[C@H]3[C@H](O)[C@@H](O)[C@H](N)C[C@@H]3N)O[C@@H]2[C@@H]1O |  | 3.04 pmol | 3.40 pmol | 2.27 pmol | 3.04 pmol | 1.68 pmol |  |  |  |  |  |  |  |  |
| NC[C@H]1O[C@H](O[C@H]2[C@H](O)[C@@H](O[C@H]3O[C@H](CO)[C@@H](O)[C@H](N)[C@H]3O)[C@H](N)C[C@@H]2N)[C@H](N)[C@@H](O)[C@@H]1O |  | 4.42 pmol | 7.22 pmol |  | 5.21 pmol | 8.04 pmol | no | 3.09 pmol |  |  |  |  |  |  |
| NC[C@H]1O[C@H](O[C@H]2[C@H](O)[C@@H](O[C@H]3O[C@H](CO)[C@@H](O)[C@H](N)[C@H]3O)[C@H](N)C[C@@H]2N)[C@H](N)C[C@@H]1O |  |  | 2.78 pmol |  | 4.03 pmol | 1.91 pmol | no | 1.13 pmol |  |  |  |  |  |  |
| NC[C@H]1O[C@H](O[C@H]2[C@H](O)[C@@H](O[C@H]3O[C@H](CO)[C@@H](O)[C@H](N)[C@H]3O)[C@H](N)C[C@@H]2N)[C@H](O)[C@@H](O)[C@@H]1O |  | 4.62 pmol | 6.85 pmol | 3.02 pmol | 5.02 pmol | 10.44 pmol |  | 6.87 pmol | 3.9 µM | 5.1 µM | 5.4 µM | 9.6 µM | no | 146 µM |
| CCN[C@@H]1C[C@H](N)[C@@H](O[C@H]2OC(CN)=CC[C@H]2N)[C@H](O)[C@H]1O[C@H]1OC[C@](C)(O)[C@H](NC)[C@H]1O |  | 1.03 pmol | 1.01 pmol |  | 1.03 pmol |  |  |  |  |  |  |  |  |  |

Source: PMC3958260 (2014)
